Assay results from publication PMC7954579 (Cancer chemotherapy and pharmacology, 2020).

Columns and labels:
HSP70 [1] = experiment: HSP70 protein in patient PBMCs by western blot; format: in vivo, human; conditions: after onalespib alone (C0D4), all dose levels
[2] = twice-weekly schedule, monotherapy; cited from earlier work
HSP90 = conditions: cited from earlier work
HSP70 [3] = experiment: Soluble HSP70 protein in patient plasma by ELISA; format: in vivo, human
[4] = IV, days 1, 4, 8, 11 of 21-day cycle, with AT7519 21 mg/m^2 (DL2)
[5] = Plasma pharmacokinetics in patients; format: in vivo, human; conditions: for AUC / Cmax / half-life: human, plasma
[6] = All dose levels, C0D1, onalespib alone, n = 27, geometric mean
[7] = All dose levels, C1D1, onalespib with AT7519, n = 24, geometric mean
[8] = All dose levels, C1D11, onalespib with AT7519, n = 16, geometric mean
[9] = DL1, C0D1, onalespib 40 mg/m^2 IV alone, n = 5, geometric mean
[10] = DL1, C1D1, onalespib 40 mg/m^2 with AT7519 21 mg/m^2, n = 4, geometric mean
[11] = DL1, C1D11, onalespib 40 mg/m^2 with AT7519 21 mg/m^2, n = 2, geometric mean
[12] = DL2, C0D1, onalespib 80 mg/m^2 IV alone, n = 17, geometric mean
[13] = DL2, C1D1, onalespib 80 mg/m^2 with AT7519 21 mg/m^2, n = 16, geometric mean
[14] = DL2, C1D11, onalespib 80 mg/m^2 with AT7519 21 mg/m^2, n = 11, geometric mean
[15] = DL3, C0D1, onalespib 80 mg/m^2 IV alone, n = 5, geometric mean
[16] = DL3, C1D1, onalespib 80 mg/m^2 with AT7519 27 mg/m^2, n = 4, geometric mean
[17] = DL3, C1D11, onalespib 80 mg/m^2 with AT7519 27 mg/m^2, n = 3, geometric mean

With `CC(C)c1cc(C(=O)N2Cc3ccc(CN4CCN(C)CC4)cc3C2)c(O)cc1O` [onalespib, (2,4-dihydroxy-5-isopropylphenyl)-[5-(4-methylpiperazin-1-ylmethyl)-1,3-dihydroisoindol-2-yl]methanone] as the compound, how does the “HSP70 protein expression in PBMCs” value (HSP70 [1]) read?
The value was “Increased HSP70 protein expression”.

And the “RP2D as individual agent” value [2]?
The value was 120 mg/m^2.

And the IC50 (HSP90)?
The IC50 was 0.7 nM.

What about the “HSP70 protein expression in plasma” value (HSP70 [3]; after onalespib alone (C0D4), all dose levels) of the same compound?
Its value is “Increased HSP70 protein expression”.

And the “Soluble HSP70 expression in plasma” value (HSP70 [3]; patient with palate adenocarcinoma (confirmed PR), after onalespib alone)?
Its value is “increase in soluble HSP70 expression”.

What about the “Maximally tolerated dose (MTD) of onalespib in the combination” value [4] of the same compound?
Its value is 80 mg/m^2.

And the CL [5, 6]?
The CL was 52.2 L/h/m^2.

And the Vz [5, 6]?
The Vz was 754 L/m^2.

What about the CL [5, 7] of the same compound?
The CL was 58.4 L/h/m^2.

And the Vz [5, 7]?
Its Vz is 725 L/m^2.

What about the CL [5, 8] of the same compound?
The CL was 61.0 L/h/m^2.

What about the Vz [5, 8] of the same compound?
The Vz was 706 L/m^2.

What about the CL [5, 9] of the same compound?
The CL was 51.3 L/h/m^2.

What about the Vz [5, 9] of the same compound?
The Vz was 742 L/m^2.

And the CL [5, 10]?
Its CL is 64.4 L/h/m^2.

And the Vz [5, 10]?
The Vz was 891 L/m^2.

What about the CL [5, 11] of the same compound?
The CL was 65.6 L/h/m^2.

What about the Vz [5, 11] of the same compound?
The Vz was 855 L/m^2.

And the CL [5, 12]?
The CL was 53.8 L/h/m^2.

What about the Vz [5, 12] of the same compound?
Its Vz is 804 L/m^2.

And the CL [5, 13]?
Its CL is 57.5 L/h/m^2.

What about the Vz [5, 13] of the same compound?
Its Vz is 721 L/m^2.

What about the CL [5, 14] of the same compound?
Its CL is 62.5 L/h/m^2.

What about the Vz [5, 14] of the same compound?
Its Vz is 743 L/m^2.

What about the CL [5, 15] of the same compound?
Its CL is 47.7 L/h/m^2.

And the Vz [5, 15]?
The Vz was 617 L/m^2.

And the CL [5, 16]?
Its CL is 56.7 L/h/m^2.

What about the Vz [5, 16] of the same compound?
The Vz was 606 L/m^2.

What about the CL [5, 17] of the same compound?
The CL was 53.1 L/h/m^2.

What about the Vz [5, 17] of the same compound?
The Vz was 516 L/m^2.

And the AUC ([5]; intravenous, AUC, DL1, C1D1, onalespib 40 mg/m^2 with AT7519 21 mg/m^2, n = 4, geometric mean)?
The AUC was 621 ng·h/mL.

And the AUC ([5]; intravenous, AUC, DL1, C1D11, onalespib 40 mg/m^2 with AT7519 21 mg/m^2, n = 2, geometric mean)?
The AUC was 610 ng·h/mL.

What about the AUC ([5]; intravenous, AUC, DL2, C1D1, onalespib 80 mg/m^2 with AT7519 21 mg/m^2, n = 16, geometric mean) of the same compound?
The AUC was 1390 ng·h/mL.

What about the AUC ([5]; intravenous, AUC, DL2, C1D11, onalespib 80 mg/m^2 with AT7519 21 mg/m^2, n = 11, geometric mean) of the same compound?
The AUC was 1280 ng·h/mL.

And the AUC ([5]; intravenous, AUC, DL3, C1D1, onalespib 80 mg/m^2 with AT7519 27 mg/m^2, n = 4, geometric mean)?
Its AUC is 1410 ng·h/mL.

What about the AUC ([5]; intravenous, AUC, DL3, C1D11, onalespib 80 mg/m^2 with AT7519 27 mg/m^2, n = 3, geometric mean) of the same compound?
Its AUC is 1510 ng·h/mL.

What about the Cmax ([5]; intravenous, Cmax, DL1, C1D1, onalespib 40 mg/m^2 with AT7519 21 mg/m^2, n = 4, geometric mean) of the same compound?
Its Cmax is 146 ng/mL.

What about the Cmax ([5]; intravenous, Cmax, DL1, C1D11, onalespib 40 mg/m^2 with AT7519 21 mg/m^2, n = 2, geometric mean) of the same compound?
The Cmax was 155 ng/mL.

What about the Cmax ([5]; intravenous, Cmax, DL2, C1D1, onalespib 80 mg/m^2 with AT7519 21 mg/m^2, n = 16, geometric mean) of the same compound?
Its Cmax is 331 ng/mL.

And the Cmax ([5]; intravenous, Cmax, DL2, C1D11, onalespib 80 mg/m^2 with AT7519 21 mg/m^2, n = 11, geometric mean)?
Its Cmax is 355 ng/mL.

What about the Cmax ([5]; intravenous, Cmax, DL3, C1D1, onalespib 80 mg/m^2 with AT7519 27 mg/m^2, n = 4, geometric mean) of the same compound?
The Cmax was 331 ng/mL.

What about the Cmax ([5]; intravenous, Cmax, DL3, C1D11, onalespib 80 mg/m^2 with AT7519 27 mg/m^2, n = 3, geometric mean) of the same compound?
The Cmax was 424 ng/mL.

And the half-life ([5]; intravenous, t1/2,z, All dose levels, C0D1, onalespib alone, n = 27, geometric mean)?
The half-life was 10 h.

What about the half-life ([5]; intravenous, t1/2,z, DL1, C1D1, onalespib 40 mg/m^2 with AT7519 21 mg/m^2, n = 4, geometric mean) of the same compound?
The half-life was 9.6 h.

What about the half-life ([5]; intravenous, t1/2,z, DL1, C1D11, onalespib 40 mg/m^2 with AT7519 21 mg/m^2, n = 2, geometric mean) of the same compound?
Its half-life is 9.4 h.

What about the half-life ([5]; intravenous, t1/2,z, DL2, C1D1, onalespib 80 mg/m^2 with AT7519 21 mg/m^2, n = 16, geometric mean) of the same compound?
Its half-life is 8.7 h.

What about the half-life ([5]; intravenous, t1/2,z, DL2, C1D11, onalespib 80 mg/m^2 with AT7519 21 mg/m^2, n = 11, geometric mean) of the same compound?
Its half-life is 8.2 h.

And the half-life ([5]; intravenous, t1/2,z, DL3, C1D1, onalespib 80 mg/m^2 with AT7519 27 mg/m^2, n = 4, geometric mean)?
Its half-life is 7.4 h.

And the half-life ([5]; intravenous, t1/2,z, DL3, C1D11, onalespib 80 mg/m^2 with AT7519 27 mg/m^2, n = 3, geometric mean)?
Its half-life is 6.7 h.

And the AUC ([5]; iv, 40 mg/m2, AUC, DL1, C0D1, onalespib 40 mg/m^2 IV alone, n = 5, geometric mean)?
Its AUC is 780 ng·h/mL.

And the Cmax ([5]; iv, 40 mg/m2, Cmax, DL1, C0D1, onalespib 40 mg/m^2 IV alone, n = 5, geometric mean)?
The Cmax was 193 ng/mL.

And the half-life ([5]; iv, 40 mg/m2, t1/2,z, DL1, C0D1, onalespib 40 mg/m^2 IV alone, n = 5, geometric mean)?
The half-life was 10 h.

What about the AUC ([5]; iv, 80 mg/m2, AUC, DL2, C0D1, onalespib 80 mg/m^2 IV alone, n = 17, geometric mean) of the same compound?
Its AUC is 1490 ng·h/mL.

And the AUC ([5]; iv, 80 mg/m2, AUC, DL3, C0D1, onalespib 80 mg/m^2 IV alone, n = 5, geometric mean)?
The AUC was 1680 ng·h/mL.

And the Cmax ([5]; iv, 80 mg/m2, Cmax, DL2, C0D1, onalespib 80 mg/m^2 IV alone, n = 17, geometric mean)?
Its Cmax is 349 ng/mL.

And the Cmax ([5]; iv, 80 mg/m2, Cmax, DL3, C0D1, onalespib 80 mg/m^2 IV alone, n = 5, geometric mean)?
Its Cmax is 487 ng/mL.

What about the half-life ([5]; iv, 80 mg/m2, t1/2,z, DL2, C0D1, onalespib 80 mg/m^2 IV alone, n = 17, geometric mean) of the same compound?
The half-life was 10.4 h.

What about the half-life ([5]; iv, 80 mg/m2, t1/2,z, DL3, C0D1, onalespib 80 mg/m^2 IV alone, n = 5, geometric mean) of the same compound?
Its half-life is 9 h.
